In patent US12194015B2, “Composition comprising ferrous amino acid particles and method for treating or ameliorating pancreas-related disease using the same” (priority 2018, dated 2025):
Values joined by “and” are separate entries in the source; they are usually repeats but may differ in a detail not shown here. Equal values may be shown once.

Experiments:
[1] = system: orthotopic xenograft pancreatic cancer (PANC-1); test: Therapeutic effect (I) with gemcitabine: tumor growth (IVIS) and survival (Example 6); assay type: in vivo, NOD-SCID mice
Procedure: The human pancreatic adenocarcinoma cell line PANC-1 obtained from preparation example 2 was cloned and labelled with luminescence and fluorescence vector. The luminescence and fluorescence-labelled cells were implanted into pancreas of experimental mice (50 NOD-SCID experimental mice purchased from BioLASCO Taiwan Co., Ltd) with a cell number of 5×10^5 by surgery. 10 days after the cell implantation to the pancreas of the animals, the baseline data was measured by noninvasive in vivo imaging system (IVIS). After the baseline IVIS data were obtained, all the experimental mice were randomly and evenly assigned into groups [the value of mean±3 s.d. of measured IVIS data was calculated, and the animals having an IVIS data within the standard range were assigned into control group (physiological saline was used), the group of the composition of the present invention obtained from preparation example (24 mg/kg the composition obtained for preparation example 1 was administrated directly into the stomachs of the mice through feeding tubes once per day), gemcitabine group (100 mg/kg gemcitabine was administered by intravenous injection twice per week), and combination group (24 mg/kg the composition of the present invention was administered daily and 100 mg/kg gemcitabine was administered twice per week), followed by the administration. The dosage and dosage regimen of the composition of the present invention were decided based on the results of example 4 that there were no significant differences between the high-dose group and the low-dose group, so the dosage of 24 mg/kg was chosen for this experiment. The dosage and the dosage regimen of first-line drug for the pancreatic cancer were decided in accordance with two journal articles: Cook, Natalie, et al. “Gamma secretase inhibition promotes hypoxic necrosis in mouse pancreatic ductal adenocarcinoma.” Journal of Experimental Medicine 209.3 (2012): 437-444. and Olive, Kenneth P., et al. “Inhibition of Hedgehog signaling enhances delivery of chemotherapy in a mouse model of pancreatic cancer.” Science (2009), so that the gemcitabine was administered at the dosage of 100 mg/kg twice per week for the experiment. The time points of IVIS data measurement were: Baseline 10 Day (Baseline 10D), the 17th day (the 7th day after administration), the 24th day (14 days after treatment), the 31st day (21 days after treatment), and the 38th day (28 days after treatment) of the experiment. […] The survival period of each mouse during the experiment was recorded.

[2] = Jaundice observation and blood tests T-bilirubin, GOT/AST, GPT/ALT (Example 6); assay type: in vivo, NOD-SCID mice
Procedure: The luminescence and fluorescence-labelled cells were implanted into pancreas of experimental mice (50 NOD-SCID experimental mice purchased from BioLASCO Taiwan Co., Ltd) with a cell number of 5×10^5 by surgery. 10 days after the cell implantation to the pancreas of the animals, the baseline data was measured by noninvasive in vivo imaging system (IVIS). After the baseline IVIS data were obtained, all the experimental mice were randomly and evenly assigned into groups [the value of mean±3 s.d. of measured IVIS data was calculated, and the animals having an IVIS data within the standard range were assigned into control group (physiological saline was used), the group of the composition of the present invention obtained from preparation example (24 mg/kg the composition obtained for preparation example 1 was administrated directly into the stomachs of the mice through feeding tubes once per day), gemcitabine group (100 mg/kg gemcitabine was administered by intravenous injection twice per week), and combination group (24 mg/kg the composition of the present invention was administered daily and 100 mg/kg gemcitabine was administered twice per week), followed by the administration. […] The blood tests for total bilirubin (T-bilirubin), glutamate oxaloacetate transaminase/aspartate aminotransferase (GOT/AST), and glutamate pyruvate transaminase/alanine transaminase (GPT/ALT) of all experimental animals on the 9th week were conducted and the mice were observed whether the jaundice occurred or not by the naked eyes. The jaundice signs of mice which could be observed by naked eyes included: emaciation, swollen gall, yellow dark skin, and abnormal yellow limbs and tail.

[3] = system: orthotopic xenograft pancreatic cancer (PANC-1); test: Therapeutic effect (II) with gemcitabine cycles: tumor growth (IVIS) and survival (Example 7); assay type: in vivo, NOD-SCID mice; details: for inhibition of the tumor growth of the orthotopic xenograft pancreatic cancer compared to control: composition 24 mg/kg daily, gemcitabine 100 mg/kg in gemcitabine cycles
Procedure: The human pancreatic adenocarcinoma cell line PANC-1 obtained from preparation example 2 was cloned and labelled with luminescence and fluorescence vector. The luminescence and fluorescence-labelled cells were implanted into pancreas of experimental mice (40 NOD-SCID experimental mice purchased from BioLASCO Taiwan Co., Ltd) with a cell number of 5×10^5 by surgery. 10 days after the cell implantation to the pancreas of the animals, the baseline data was measured by noninvasive in vivo imaging system (IVIS). After the baseline IVIS data were obtained, all the experimental mice were randomly and evenly assigned into groups [the value of mean±3 s.d. of measured IVIS data was calculated, and the animals having an IVIS data within the standard range were assigned into control group (physiological saline was used), the group of the composition of the present invention (24 mg/kg the composition obtained for preparation example 1 was administrated daily), gemcitabine group (100 mg/kg gemcitabine was administered by intravenous injection twice per week continuously for three weeks and discontinuing gemcitabine on the fourth week. These four weeks were named as gemcitabine cycle. There were three gemcitabine cycles in the present example.), and the combination group (100 mg/kg gemcitabine was administered by intravenous injection twice per week continuously for three weeks, and discontinuing gemcitabine on the fourth week, and the 24 mg/kg composition of the present invention obtained from the preparation example 1 were administered daily). […] The time points of IVIS data measurement of this example were: Baseline 10 Day (Baseline 10D), the 17th day (7 days after treatment), the 24th day (14 days after treatment), the 31st day (21 days after treatment), the 38th day (28 days after treatment), the 45th day (35 days after treatment), and the 59th day (49 days after treatment) of experiment. The blood of the experimental mice was collected and the T-bilirubin, GOT, and GPT in blood were examined to monitor the reason causing the jaundice on the fixed time points [Baseline 10 Day (Baseline 10D), the 4th week after treatment, the 8th week after treatment, the 10th week after treatment, and the 12th week after treatment,]. Whether the jaundice occurred or not was also observed by naked eyes. The jaundice signs of mice which could be observed by naked eyes included: emaciation, swollen gall, yellow dark skin, and abnormal yellow limbs and tail. The survival period of each mouse during the experiment was recorded.

[4] = Jaundice observation and blood tests T-bilirubin, GOT, GPT (Example 7); assay type: in vivo; parameters: dose or concentration left out as unconfirmed; details: 13th week after treatment
Procedure: The luminescence and fluorescence-labelled cells were implanted into pancreas of experimental mice (40 NOD-SCID experimental mice purchased from BioLASCO Taiwan Co., Ltd) with a cell number of 5×10^5 by surgery. 10 days after the cell implantation to the pancreas of the animals, the baseline data was measured by noninvasive in vivo imaging system (IVIS). After the baseline IVIS data were obtained, all the experimental mice were randomly and evenly assigned into groups [the value of mean±3 s.d. of measured IVIS data was calculated, and the animals having an IVIS data within the standard range were assigned into control group (physiological saline was used), the group of the composition of the present invention (24 mg/kg the composition obtained for preparation example 1 was administrated daily), gemcitabine group (100 mg/kg gemcitabine was administered by intravenous injection twice per week continuously for three weeks and discontinuing gemcitabine on the fourth week. These four weeks were named as gemcitabine cycle. […] The survival period of each mouse during the experiment was recorded. […]

Nc1ccn([C@@H]2O[C@H](CO)[C@@H](O)C2(F)F)c(=O)n1 [gemcitabine]
effect of inhibiting the tumor growth of the pancreatic cancer compared to control ([1]; 28 days after treatment, composition 24 mg/kg daily, gemcitabine 100 mg/kg i.v. twice per week): around 50%
day of the experiment on which the first dead mouse was found ([1]; Example 6, control 60th day): 77 days
day of the experiment on which the last dead mouse was found ([1]; Example 6, control 91st day): 100 days
average survival period of the whole group ([1]; Example 6, control 80.1 days): 89.4 days
jaundice ([2]; 9th week after treatment, gemcitabine continuously twice per week): jaundice was found
T-bilirubin in the blood ([2]; 9 weeks after treatment, versus groups not treated with gemcitabine, FIG. 13A): significantly higher
GOT in the blood ([2]; 9 weeks after treatment, versus groups not treated with gemcitabine, FIG. 13B): significantly higher
GPT in the blood ([2]; 9 weeks after treatment, versus groups not treated with gemcitabine, FIG. 13C): significantly higher
inhibition of the tumor growth of the orthotopic xenograft pancreatic cancer compared to control ([3]; 28th day after treatment): 50%-60%
inhibition of the tumor growth of the orthotopic xenograft pancreatic cancer compared to control ([3]; 49th day after treatment): 50%-60%
Average survival period ([3]; Example 7, control group 89.4): 114.7 days
Survival period of the experimental mice ([3]; individual mice, 7 per group, Example 7): 109 Days (2×) and 113 Days and 119 Days and 140 Days and 105 Days and 108 Days
number of mice with T-bilirubin higher than the standard [4]: one
